In publication PMC6543015, “Exploring the overlapping binding sites of ifenprodil and EVT‐101 in GluN2B‐containing NMDA receptors using novel chicken embryo forebrain cultures and molecular modeling” (Pharmacology Research & Perspectives, 2019):
Like-named read-outs stand apart in the source and are kept apart here.

Legend:
[1] = molecular target: recombinant GluN1/GluN2B receptors; details: recombinant GluN1/GluN2B in X. laevis oocytes, electrophysiology; cited from earlier work
[2] = molecular target: native GluN2B‐containing NMDA receptors (Gallus gallus, UniProt F1NMB0+Q4KXT1); test: Calcium influx measurement (Fura-2) in E10 chicken embryo forebrain cell culture at DIV1, induced with NMDA and glycine; format: cell-based, chicken (Gallus gallus); details: for EC50: primary cultures from chicken embryo forebrain (E10), read-out: EC50, inhibition of calcium influx; for Emax: read-out: calcium influx blocked
native GluN2B‐containing NMDA receptors, sequence (F1NMB0 entry or part of it, other chains not shown): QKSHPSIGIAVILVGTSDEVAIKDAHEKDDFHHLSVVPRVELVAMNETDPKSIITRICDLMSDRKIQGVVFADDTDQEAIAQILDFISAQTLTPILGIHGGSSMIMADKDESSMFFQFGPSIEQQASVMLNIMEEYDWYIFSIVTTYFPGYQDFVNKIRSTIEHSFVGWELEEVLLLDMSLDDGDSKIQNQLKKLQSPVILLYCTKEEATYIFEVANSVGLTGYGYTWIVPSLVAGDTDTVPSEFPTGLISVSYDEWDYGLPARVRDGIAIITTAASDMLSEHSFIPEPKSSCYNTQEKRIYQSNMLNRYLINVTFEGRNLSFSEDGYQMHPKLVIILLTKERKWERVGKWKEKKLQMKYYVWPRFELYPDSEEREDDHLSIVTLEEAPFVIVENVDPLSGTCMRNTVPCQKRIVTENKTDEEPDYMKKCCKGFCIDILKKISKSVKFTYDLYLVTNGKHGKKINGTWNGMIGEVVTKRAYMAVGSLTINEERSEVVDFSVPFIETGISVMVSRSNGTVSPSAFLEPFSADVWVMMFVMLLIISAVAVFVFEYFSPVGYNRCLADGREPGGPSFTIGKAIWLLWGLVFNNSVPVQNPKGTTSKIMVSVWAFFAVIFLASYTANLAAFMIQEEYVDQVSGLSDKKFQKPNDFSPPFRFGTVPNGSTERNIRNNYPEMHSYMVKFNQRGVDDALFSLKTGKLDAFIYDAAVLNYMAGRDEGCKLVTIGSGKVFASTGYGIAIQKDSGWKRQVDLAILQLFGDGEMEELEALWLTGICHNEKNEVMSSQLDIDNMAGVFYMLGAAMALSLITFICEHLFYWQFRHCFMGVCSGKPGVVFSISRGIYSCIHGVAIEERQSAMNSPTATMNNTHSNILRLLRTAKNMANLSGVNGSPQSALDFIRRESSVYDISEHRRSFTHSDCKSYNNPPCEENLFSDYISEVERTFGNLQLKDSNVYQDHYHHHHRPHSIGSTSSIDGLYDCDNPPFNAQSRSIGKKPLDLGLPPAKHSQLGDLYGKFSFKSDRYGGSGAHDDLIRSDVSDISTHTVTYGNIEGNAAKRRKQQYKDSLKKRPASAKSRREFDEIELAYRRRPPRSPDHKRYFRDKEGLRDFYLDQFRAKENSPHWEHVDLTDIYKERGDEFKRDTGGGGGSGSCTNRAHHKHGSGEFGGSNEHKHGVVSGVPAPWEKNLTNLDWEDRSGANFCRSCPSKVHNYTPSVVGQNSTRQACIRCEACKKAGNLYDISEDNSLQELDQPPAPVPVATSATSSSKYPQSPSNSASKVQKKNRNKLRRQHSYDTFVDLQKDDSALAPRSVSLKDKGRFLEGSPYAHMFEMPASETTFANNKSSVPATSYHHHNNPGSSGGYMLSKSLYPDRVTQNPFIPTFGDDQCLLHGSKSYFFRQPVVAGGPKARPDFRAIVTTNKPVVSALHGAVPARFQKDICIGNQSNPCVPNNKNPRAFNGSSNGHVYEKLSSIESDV
Method: The eggs were submerged in crushed ice for 7 minutes to anesthetize the embryos before decapitation. The forebrain was surgically removed, and the meninges were discarded. The tissue was homogenized by chopping with a scalpel before trypsination in buffered solutions as previously described.30, 31 Cells were suspended in DMEM supplemented with 1% N‐2, 100 U/mL penicillin and 0.1 mg/mL streptomycin (Pen‐Strep), 10% fetal bovine serum (FBS), and 0.75% GlutaMAX™. Cells were seeded (1.7 × 10^6 cells/mL) on 35 mm Petri dishes or in 96‐well plates (Corning® CellBIND® 96 well plates; Merck) precoated with poly‐L‐lysine, and incubated at 37°C, with 5% CO2. These cultures contain an abundance of functional GluN2B receptors on DIV1 (A. Ring, pers. commun.).
Fura‐2 fluorescence was measured using CLARIOstar® plate reader (BMG Labtech, Germany). Intracellular Ca^2+ changes were expressed as changes in 340/380 nm fluorescence emission ratio. The wash buffer was then carefully replaced with test compound (20 nmol/L to 10 μmol/L) in standard buffer (n = 4 per concentration, two compounds per 96‐well plate). NMDA receptor‐mediated Ca^2+ influx was induced by NMDA (0.2 mmol/L) and glycine (0.1 mmol/L) in each well. The resulting rise in intracellular Ca^2+ was expressed as a change in the 340/380 emission ratio by subtracting the initial Ca^2+ level from the NMDA stimulated Ca^2+ responses. […] Inhibition curves for each compound were established by dose response experiments (n ≥ 5). For Ro 04‐5595, four representative IC50 values were chosen to make Figure 2A, while 13 experiments around the median were chosen for Figure 2C.

[3] = molecular target: recombinant GluN1/GluN2B receptors; set-up: method as in PMID 22197913; details: recombinant GluN1/GluN2B in X. laevis oocytes, electrophysiology; cited from earlier work
[4] = E10 chicken forebrain cell culture at DIV 1, NMDA 200 and glycine 100 μmol/L, Fura-2, read-out: IC50 Chicken (present work)
[5] = maximal block by GluN2B-specific allosteric antagonists, chicken forebrain culture

SMILES	IC50 [1] [nM]	IC50 [2, 4] [nM]	calcium influx blocked [2, 5]	EC50 [2] [nM]	Emax [2, 5] [%]	IC50 [3] [nM]	Emax [2] [%]	IC50 ([2]; chicken forebrain culture calcium influx assay, read-out: IC50 value) [nM]
Cc1nccn1Cc1cc(-c2ccc(F)c(C(F)F)c2)cnn1.Cl.Cl [EVT‐101]	12 ± 0.2	22 ± 8	approximately 70%	22 ± 8	–	–	–	–
OC(CN1CCC(Cc2ccc(F)cc2)CC1)c1ccc(Cl)cc1 (stereo not shown) [Eliprodil, eliprodil]	780 ± 90	1260 ± 683	–	1300 ± 700	~70	930 ± 140	–	–
CC(C(O)c1ccc(O)cc1)N1CCC(Cc2ccccc2)CC1 (stereo not shown) [Ifenprodil, ifenprodil]	110 ± 10	103 ± 39	–	100 ± 40	–	130 ± 10	~70	–
COc1cc2c(cc1O)C(CCc1ccc(Cl)cc1)N(C)CC2 (stereo not shown) [Ro 04‐5595]	–	186 ± 35	–	186 ± 32	–	–	–	< 200
C[C@@H]([C@H](O)c1ccc(O)cc1)N1CCC(Cc2ccccc2)CC1 [Ro 25‐6981]	42 ± 6	60 ± 27	approximately 70%	60 ± 30	–	49 ± 8	–	–
